Patent US20180346518A1, “LYSOBACTIN FOR USE IN THE TREATMENT OF BOVINE MASTITIS” (BAYER ANIMAL HEALTH GMBH, priority 2015, published 2018)
In brackets after ≈: the same amount, converted by molar mass. Numbered stars: 1 amine (or outer) side, 2 acyl side, 3 side chain; on linkers, the order of the positions; unused ones are H or OH. Bridge positions count the residues as written; N and C are the ends. Square brackets hold non-standard residues; d marks the D form. Peptide text beside a SMILES is read from it. Phe(3R-OH) = O=C([C@@H](N[*:1])[C@H](O[*:3])c1ccccc1)[*:2]; Asn(3S-OH) = NC(=O)[C@@H](O)[C@H](N)C(=O)O; Leu(3R-OH) = CC(C)[C@@H](O)[C@H](N)C(=O)O; aThr = C[C@H](O)[C@H](N)C(=O)O

Assays:
Streptococcus uberis [1] = assay: dairy cow udder infection model with S. uberis; format: in vivo, lactating dairy cows
Protocol: Seventy-two healthy lactating dairy cows were experimentally infected with the mastitis pathogen Streptococcus uberis on two udder quarters per cow. […] Treatments were randomly assigned to 41 (clinical) or 37 (microbiological) udder quarters in total, either 50 mg lysobactin per quarter (in 15/13 quarters), or 150 mg lysobactin (in 15/14 quarters), or Ubrolexin® (in 11/10 quarters) as positive control. The diseased quarters were treated with these intramammary formulations two times with an interval of 24 hours in between. Udders were clinically examined and milk samples were taken before treatment and several times after that until three weeks after the second administration. Milk was inspected visually for deviation in its consistency and samples were evaluated for presence of the challenge organism to confirm the diagnosis mastitis. Diseased udder quarters were considered microbiologically cured when Streptococcus uberis found in milk samples shortly before treatment could not be isolated from any milk sample taken within the time period between the seventh and the twenty-first day after the second treatment. Clinical cure was achieved when the local symptoms of mastitis completely disappeared or were at the most of very slight nature.

Trueperella pyogenes = assay: microbroth dilution MIC (CLSI), MIC90; format: cell-based
Protocol: (§1) The in vitro antibacterial activity of lysobactin against common mastitis pathogens such as Staphylococcus aureus, Coagulase-negative staphylococci, Streptococcus uberis, Streptococcus dvsgalactiae, Streptococcus agalactiae, Trueperella pyogenes, Escherichia coli, or Klebsiella pneumoniae was assessed by microbroth dilution MIC methodology as described by the Clinical and Laboratory Standards Institute (CLSI) in order to obtain the Minimal Inhibitory Concentration (MIC), which is defined as the lowest concentration of a substance that prevents visible growth of a bacterium. The results expressed as MIC90 are summarized in the following table, where the MIC90 is defined as the concentration at which the growth of at least 90% of the strains of a given species is inhibited.

Streptococcus agalactiae = assay: microbroth dilution MIC (CLSI), MIC90; format: cell-based
Protocol: as §1

[2] = test system: Streptococcus dysgalactiae; assay: microbroth dilution MIC (CLSI), MIC90; format: cell-based
Protocol: as §1

Klebsiella pneumoniae = assay: microbroth dilution MIC (CLSI), MIC90; format: cell-based
Protocol: as §1

[3] = test system: Coagulase-negative staphylococci; assay: microbroth dilution MIC (CLSI), MIC90; format: cell-based
Protocol: as §1

Staphylococcus aureus [4] = assay: microbroth dilution MIC (CLSI), MIC90; format: cell-based
Protocol: as §1

Streptococcus uberis [5] = assay: microbroth dilution MIC (CLSI), MIC90; format: cell-based
Protocol: as §1

Escherichia coli = assay: microbroth dilution MIC (CLSI), MIC90; format: cell-based
Protocol: as §1

in vivo = assay: in vivo; parameters: species or system Holstein cows; settings: female, Holstein, bovine, 150 mg
Protocol: The study was designed as a non-pivotal study suitable to investigate the milk pharmacokinetics of the active substance lysobactin after single intracisternal application to lactating dairy cows. The active substance was provided in a paraffine based service formulation suitable for intracisternal application containing 150 mg lysobactin B in 10 g oily suspension. The test item was administered as single intracisternal treatment at a dose rate of 150 mg lysobactin to a single hind quarter of four lactating dairy cows each. The dairy cows on study (Holstein cows) represented the target population in age, lactation number, lactation stage, milk yield and breed. The animals were stalled in a tie-barn and were fed with standard feed for dairy cows consisting of corn and grass silage and milk performance feed. Milking was twice daily at a 12 hour interval using a bucket-type milking device. Frequent milk sampling was performed from the treated and respective control quarters prior to (0 h) and over a period of 168 h after treatment (0.5, 1, 2, 4, 6, 8, 12, 24, 36, 48, 60, 72, 84, 96, 120, 144, and 168 h) by manual stripping of the respective udder quarters. Milk samples at routine milking times were gathered prior to milking. Concentrations of the active substance lysobactin in milk were analyzed by HPLC with detection by tandem mass spectrometry. The limit of quantitation was 0.05 mg/L. Pharmacokinetic evaluation of milk concentration data was based on non-compartmental methods and comprised PK-parameters to adequately describe the absorption, distribution and elimination profile of the active substance in milk.

[6] = test system: Staphylococcus aureus ATCC 29740; assay: spontaneous resistance development; format: cell-based; settings: for obtained colonies: plated CFU 3.52 × 10^9
Protocol: (§2) The frequency of spontaneous resistance development was assessed by plating at least 1×10^9 colony forming units of the respective bacterial strain on agar plates containing lysobactin at either 4× or 8× the MIC and incubating the plates at 35+/−2° C. […] The resulting number is defined as the spontaneous resistance frequency, and is an indication for the likelihood of resistant isolates to appear during an infection.

[7] = test system: Streptococcus uberis ATCC 27958; assay: spontaneous resistance development; format: cell-based; settings: for obtained colonies: plated CFU 2.4 × 10^10
Protocol: as §2

Staphylococcus aureus [8] = assay: Staphylococcus aureus acute mouse mastitis model; format: in vivo, lactating CD-1 mice
Protocol: The efficacy of lysobactin (formulated in a hydrogel at pH 4.7) was tested in a Staphylococcus aureus acute mouse mastitis model established at the University of Sherbrooke, Canada (Broui-llette et al, Vet. Microbiol. (2004) 4:253-262), that is hereby incorporated by reference. Both the abdominal mammary glands (L4 and R4) of lactating CD-1 mice were intramammarily infected with 100 CFU (colony forming units) of S. aureus. The mice were treated intramammarily with lysobactin four hours after infection. Each treatment group contained at least 3 mice (6 quarters) 14 hours later (18 hours after inoculation) mice were sacrificed, mammary glands were harvested and the CFU content evaluated by plating 10-fold serial dilutions of mammary gland homogenates. The CFU content was expressed as log10 count. The detection limit was 200 CFU/g of gland. Glands with less than 200 CFU/g were regarded as cleared.

[9] = 150 mg per quarter, Day 7 after second treatment

SMILES: CC[C@H](C)[C@@H]1NC(=O)[C@@H](CCCNC(=N)N)NC(=O)[C@H](CC(C)C)NC(=O)[C@H]([C@H](O)C(C)C)NC(=O)[C@@H](NC(=O)[C@H](CC(C)C)NC(=O)[C@H](N)CC(C)C)[C@@H](c2ccccc2)OC(=O)[C@H](CO)NC(=O)[C@H]([C@H](O)C(N)=O)NC(=O)CNC(=O)[C@H]([C@H](C)O)NC1=O [lysobactin] (H-[dL]L[Phe(3R-OH)][Leu(3R-OH)]L[dR]I[aThr]G[Asn(3S-OH)]S; ester 3-C)
- microbiological cure rate (Streptococcus uberis [1]; 50 mg per quarter, 2 treatments 24 h apart, Day 7 after second treatment): 84.6%
- local clinical cure rate (Streptococcus uberis [1]; 50 mg per quarter, Day 7 after second treatment): 86.7%
- microbiological cure rate (Streptococcus uberis [1]; 50 mg per quarter, Day 21 after second treatment): 92.31%
- local clinical cure rate (Streptococcus uberis [1]; [9]): 86.7%
- microbiological cure rate (Streptococcus uberis [1]; [9]): 71.4%
- microbiological cure rate (Streptococcus uberis [1]; 150 mg per quarter, Day 21 after second treatment): 85.71%
- MIC90 (Trueperella pyogenes): 0.5 µg/mL (≈ 0.392 µM)
- MIC90 (Streptococcus agalactiae): 0.25 µg/mL (≈ 0.196 µM)
- MIC90 [2]: 0.25 µg/mL (≈ 0.196 µM)
- MIC90 (Klebsiella pneumoniae): > 16 µg/mL
- MIC90 [3]: 0.5 µg/mL (≈ 0.392 µM)
- MIC90 (Staphylococcus aureus [4]): 0.5 µg/mL (≈ 0.392 µM)
- MIC90 (Streptococcus uberis [5]): 0.125 µg/mL (≈ 0.0979 µM)
- MIC90 (Escherichia coli): > 16 µg/mL
- AUC(0-inf) (in vivo): 2320 µg·h/mL
- Cmax (in vivo): 342 µg/mL
- Tmax (in vivo): 4 h
- half-life (in vivo): 11.6 h
- AUC(0-t) (in vivo; AUC0-12 h): 1870 µg·h/mL
- AUC(0-t) (in vivo; AUC0-24 h): 2210 µg·h/mL
- frequency of resistance ([6]; 24 h, 2 μg/ml (4x MIC)): <2.84 × 10^−10
- obtained colonies ([6]; 24 h, 2 μg/ml (4x MIC)): 0
- frequency of resistance ([6]; 24 h, 4 μg/ml (8x MIC)): <2.84 × 10^−10
- obtained colonies ([6]; 24 h, 4 μg/ml (8x MIC)): 0
- frequency of resistance ([6]; 48 h, 2 μg/ml (4x MIC)): <2.84 × 10^−10
- obtained colonies ([6]; 48 h, 2 μg/ml (4x MIC)): 0
- frequency of resistance ([6]; 48 h, 4 μg/ml (8x MIC)): <2.84 × 10^−10
- obtained colonies ([6]; 48 h, 4 μg/ml (8x MIC)): 0
- frequency of resistance ([7]; 24 h, 2 μg/ml (4x MIC)): <4.17 × 10^−11
- obtained colonies ([7]; 24 h, 2 μg/ml (4x MIC)): 0
- frequency of resistance ([7]; 24 h, 4 μg/ml (8x MIC)): <4.17 × 10^−11
- obtained colonies ([7]; 24 h, 4 μg/ml (8x MIC)): 0
- frequency of resistance ([7]; 48 h, 2 μg/ml (4x MIC)): <4.17 × 10^−11
- obtained colonies ([7]; 48 h, 2 μg/ml (4x MIC)): 0
- frequency of resistance ([7]; 48 h, 4 μg/ml (8x MIC)): <4.17 × 10^−11
- obtained colonies ([7]; 48 h, 4 μg/ml (8x MIC)): 0
- reduction of median CFU content of mammary glands (Staphylococcus aureus [8]; 50 μg intramammary, hydrogel pH 4.7, 4 h after infection, glands harvested 18 h after inoculation): ca. 4 log10
- clearance of infection from glands (Staphylococcus aureus [8]; 400 μg intramammary, hydrogel pH 4.7, cleared = less than 200 CFU/g of gland): eliminates the infection from all infected glands
